# Key:
# Assay in all cases: biochemical
# Format in all cases: biochemical
# [1] = biological target: 363 human kinases (including Aurora A/B/C) (Homo sapiens, UniProt O96013); conditions: PAK4; for remaining activity at 0.1 µM: 100 nM; for remaining activity at 0.1 µM / remaining activity at 0.5 µM: read-out: % Enzyme Activity (relative to DMSO controls)
# Excerpt: (§1) However, the Aurora A/B selectivity ratios derived from our in vitro and in vivo data can be compared to prioritize inhibitors.
# [2] = biological target: 363 human kinases (including Aurora A/B/C) (Homo sapiens, UniProt Q8IY84); conditions: NIM1; for remaining activity at 0.1 µM: 100 nM; for remaining activity at 0.1 µM / remaining activity at 0.5 µM: read-out: % Enzyme Activity (relative to DMSO controls)
# Sequence of 363 human kinases (including Aurora A/B/C) (Homo sapiens, UniProt Q8IY84) (Q8IY84 whole entry): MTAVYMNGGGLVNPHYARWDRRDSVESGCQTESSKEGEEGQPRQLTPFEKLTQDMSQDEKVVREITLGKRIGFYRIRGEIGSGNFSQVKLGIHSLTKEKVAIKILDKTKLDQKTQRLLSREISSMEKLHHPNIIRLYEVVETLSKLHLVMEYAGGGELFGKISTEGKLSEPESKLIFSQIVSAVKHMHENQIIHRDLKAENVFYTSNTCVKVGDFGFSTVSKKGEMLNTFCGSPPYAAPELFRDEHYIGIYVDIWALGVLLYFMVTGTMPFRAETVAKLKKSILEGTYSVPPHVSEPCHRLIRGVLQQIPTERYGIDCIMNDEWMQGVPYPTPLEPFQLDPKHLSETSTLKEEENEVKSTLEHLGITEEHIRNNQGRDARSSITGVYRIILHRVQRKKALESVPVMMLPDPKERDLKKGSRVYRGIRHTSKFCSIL
# Excerpt: as §1
# [3] = biological target: 363 human kinases (including Aurora A/B/C) (Homo sapiens, UniProt Q9P1W9); conditions: PIM2; for remaining activity at 0.1 µM: 100 nM; for remaining activity at 0.1 µM / remaining activity at 0.5 µM: read-out: % Enzyme Activity (relative to DMSO controls)
# Sequence of 363 human kinases (including Aurora A/B/C) (Homo sapiens, UniProt Q9P1W9) (Q9P1W9 whole entry): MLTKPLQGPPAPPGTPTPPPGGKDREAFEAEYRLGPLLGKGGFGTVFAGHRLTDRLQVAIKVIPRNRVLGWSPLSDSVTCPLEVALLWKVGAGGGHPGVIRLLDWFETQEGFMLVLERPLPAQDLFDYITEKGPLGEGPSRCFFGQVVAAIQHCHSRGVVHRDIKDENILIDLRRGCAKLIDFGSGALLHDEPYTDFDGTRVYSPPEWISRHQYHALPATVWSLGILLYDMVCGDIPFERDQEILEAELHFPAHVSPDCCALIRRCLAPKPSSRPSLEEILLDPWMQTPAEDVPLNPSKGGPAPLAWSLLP
# Excerpt: as §1
# [4] = biological target: T1, 363 human kinases (including Aurora A/B/C) (Homo sapiens, UniProt Q13470); conditions: TNK1; for remaining activity at 0.1 µM: 100 nM; for remaining activity at 0.1 µM / remaining activity at 0.5 µM: read-out: % Enzyme Activity (relative to DMSO controls)
# T1 sequence (Q13470 1-666): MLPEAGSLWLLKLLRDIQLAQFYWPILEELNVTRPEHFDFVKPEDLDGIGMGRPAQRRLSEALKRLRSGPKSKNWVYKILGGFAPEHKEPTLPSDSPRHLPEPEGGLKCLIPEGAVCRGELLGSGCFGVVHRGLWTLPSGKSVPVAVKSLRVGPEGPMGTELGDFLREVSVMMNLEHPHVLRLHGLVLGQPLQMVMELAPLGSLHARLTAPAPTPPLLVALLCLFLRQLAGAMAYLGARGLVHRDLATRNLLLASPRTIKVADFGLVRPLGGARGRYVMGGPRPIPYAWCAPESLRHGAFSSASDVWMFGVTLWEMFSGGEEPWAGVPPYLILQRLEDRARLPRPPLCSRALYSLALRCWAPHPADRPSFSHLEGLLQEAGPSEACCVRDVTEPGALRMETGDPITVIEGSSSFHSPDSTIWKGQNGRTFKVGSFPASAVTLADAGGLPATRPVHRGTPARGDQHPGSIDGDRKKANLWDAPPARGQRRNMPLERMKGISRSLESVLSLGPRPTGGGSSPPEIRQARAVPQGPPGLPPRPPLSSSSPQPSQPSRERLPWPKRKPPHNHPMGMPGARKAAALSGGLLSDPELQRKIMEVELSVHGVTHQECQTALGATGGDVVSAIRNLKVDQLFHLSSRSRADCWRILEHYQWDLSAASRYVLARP
# Excerpt: as §1
# [5] = biological target: 363 human kinases (including Aurora A/B/C) (Homo sapiens, UniProt Q86UE8); conditions: TLK2; for remaining activity at 0.1 µM: 100 nM; for remaining activity at 0.1 µM / remaining activity at 0.5 µM: read-out: % Enzyme Activity (relative to DMSO controls)
# Sequence of 363 human kinases (including Aurora A/B/C) (Homo sapiens, UniProt Q86UE8) (Q86UE8 whole entry): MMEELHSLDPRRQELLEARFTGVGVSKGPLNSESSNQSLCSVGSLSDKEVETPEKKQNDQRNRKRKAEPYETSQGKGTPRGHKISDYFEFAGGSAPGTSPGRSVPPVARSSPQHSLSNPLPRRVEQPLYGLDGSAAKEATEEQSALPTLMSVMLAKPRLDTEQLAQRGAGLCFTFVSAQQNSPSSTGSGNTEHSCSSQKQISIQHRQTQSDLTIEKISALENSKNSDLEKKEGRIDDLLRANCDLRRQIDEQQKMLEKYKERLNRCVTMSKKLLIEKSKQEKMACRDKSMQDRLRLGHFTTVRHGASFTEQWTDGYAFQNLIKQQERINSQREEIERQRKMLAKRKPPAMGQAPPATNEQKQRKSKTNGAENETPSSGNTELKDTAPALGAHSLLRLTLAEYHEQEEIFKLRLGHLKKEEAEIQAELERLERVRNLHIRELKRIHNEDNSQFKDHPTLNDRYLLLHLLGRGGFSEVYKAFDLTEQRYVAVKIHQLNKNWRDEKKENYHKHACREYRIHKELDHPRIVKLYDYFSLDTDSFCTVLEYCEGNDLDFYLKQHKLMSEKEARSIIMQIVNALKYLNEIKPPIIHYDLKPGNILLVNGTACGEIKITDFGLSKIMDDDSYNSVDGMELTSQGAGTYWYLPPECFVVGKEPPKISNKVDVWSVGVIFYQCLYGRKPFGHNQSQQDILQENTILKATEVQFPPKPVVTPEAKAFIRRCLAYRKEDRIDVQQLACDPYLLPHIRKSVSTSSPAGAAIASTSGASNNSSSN
# Excerpt: as §1
# [6] = biological target: 363 human kinases (including Aurora A/B/C) (Homo sapiens, UniProt P06241); conditions: FYN; for remaining activity at 0.1 µM: 100 nM; for remaining activity at 0.1 µM / remaining activity at 0.5 µM: read-out: % Enzyme Activity (relative to DMSO controls)
# Sequence of 363 human kinases (including Aurora A/B/C) (Homo sapiens, UniProt P06241) (P06241 whole entry): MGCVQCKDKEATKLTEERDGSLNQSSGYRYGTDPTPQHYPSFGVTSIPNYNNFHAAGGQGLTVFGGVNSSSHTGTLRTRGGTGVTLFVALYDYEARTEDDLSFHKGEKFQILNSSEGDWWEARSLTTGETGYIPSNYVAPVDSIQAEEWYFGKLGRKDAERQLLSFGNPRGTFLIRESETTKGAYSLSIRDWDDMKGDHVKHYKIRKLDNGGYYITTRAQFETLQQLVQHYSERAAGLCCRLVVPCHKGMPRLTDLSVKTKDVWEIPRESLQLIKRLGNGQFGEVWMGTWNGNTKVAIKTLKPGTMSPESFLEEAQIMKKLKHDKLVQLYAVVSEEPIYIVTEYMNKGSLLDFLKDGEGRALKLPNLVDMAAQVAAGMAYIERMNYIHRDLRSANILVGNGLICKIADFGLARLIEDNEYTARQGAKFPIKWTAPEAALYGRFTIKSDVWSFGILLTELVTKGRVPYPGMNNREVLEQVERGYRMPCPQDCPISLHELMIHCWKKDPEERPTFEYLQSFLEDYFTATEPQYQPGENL
# Excerpt: as §1
# [7] = biological target: 363 human kinases (including Aurora A/B/C) (Homo sapiens, UniProt Q9H4A3); conditions: WNK1; for remaining activity at 0.1 µM: 100 nM; for remaining activity at 0.1 µM / remaining activity at 0.5 µM: read-out: % Enzyme Activity (relative to DMSO controls)
# Excerpt: as §1
# [8] = biological target: 363 human kinases (including Aurora A/B/C) (Homo sapiens, UniProt Q86UX6); conditions: STK32C/YANK3; for remaining activity at 0.1 µM: 100 nM; for remaining activity at 0.1 µM / remaining activity at 0.5 µM: read-out: % Enzyme Activity (relative to DMSO controls)
# Sequence of 363 human kinases (including Aurora A/B/C) (Homo sapiens, UniProt Q86UX6) (Q86UX6 whole entry): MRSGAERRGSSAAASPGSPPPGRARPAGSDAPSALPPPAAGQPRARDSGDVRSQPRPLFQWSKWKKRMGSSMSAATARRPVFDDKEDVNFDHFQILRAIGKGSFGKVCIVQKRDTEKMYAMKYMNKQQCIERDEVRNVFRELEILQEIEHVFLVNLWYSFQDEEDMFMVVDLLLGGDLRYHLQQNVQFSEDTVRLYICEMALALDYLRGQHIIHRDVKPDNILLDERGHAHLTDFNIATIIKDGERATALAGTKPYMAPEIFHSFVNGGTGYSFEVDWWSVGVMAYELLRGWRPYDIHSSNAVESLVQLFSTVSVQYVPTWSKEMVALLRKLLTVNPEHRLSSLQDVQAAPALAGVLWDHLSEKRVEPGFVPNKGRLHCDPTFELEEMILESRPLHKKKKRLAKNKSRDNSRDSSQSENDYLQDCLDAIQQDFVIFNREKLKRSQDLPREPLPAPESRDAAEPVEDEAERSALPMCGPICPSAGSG
# Excerpt: as §1
# [9] = biological target: T2, 363 human kinases (including Aurora A/B/C) (Homo sapiens, UniProt Q6VAB6); conditions: KSR2; for remaining activity at 0.1 µM: 100 nM; for remaining activity at 0.1 µM / remaining activity at 0.5 µM: read-out: % Enzyme Activity (relative to DMSO controls)
# T2 sequence (Q6VAB6 1-950): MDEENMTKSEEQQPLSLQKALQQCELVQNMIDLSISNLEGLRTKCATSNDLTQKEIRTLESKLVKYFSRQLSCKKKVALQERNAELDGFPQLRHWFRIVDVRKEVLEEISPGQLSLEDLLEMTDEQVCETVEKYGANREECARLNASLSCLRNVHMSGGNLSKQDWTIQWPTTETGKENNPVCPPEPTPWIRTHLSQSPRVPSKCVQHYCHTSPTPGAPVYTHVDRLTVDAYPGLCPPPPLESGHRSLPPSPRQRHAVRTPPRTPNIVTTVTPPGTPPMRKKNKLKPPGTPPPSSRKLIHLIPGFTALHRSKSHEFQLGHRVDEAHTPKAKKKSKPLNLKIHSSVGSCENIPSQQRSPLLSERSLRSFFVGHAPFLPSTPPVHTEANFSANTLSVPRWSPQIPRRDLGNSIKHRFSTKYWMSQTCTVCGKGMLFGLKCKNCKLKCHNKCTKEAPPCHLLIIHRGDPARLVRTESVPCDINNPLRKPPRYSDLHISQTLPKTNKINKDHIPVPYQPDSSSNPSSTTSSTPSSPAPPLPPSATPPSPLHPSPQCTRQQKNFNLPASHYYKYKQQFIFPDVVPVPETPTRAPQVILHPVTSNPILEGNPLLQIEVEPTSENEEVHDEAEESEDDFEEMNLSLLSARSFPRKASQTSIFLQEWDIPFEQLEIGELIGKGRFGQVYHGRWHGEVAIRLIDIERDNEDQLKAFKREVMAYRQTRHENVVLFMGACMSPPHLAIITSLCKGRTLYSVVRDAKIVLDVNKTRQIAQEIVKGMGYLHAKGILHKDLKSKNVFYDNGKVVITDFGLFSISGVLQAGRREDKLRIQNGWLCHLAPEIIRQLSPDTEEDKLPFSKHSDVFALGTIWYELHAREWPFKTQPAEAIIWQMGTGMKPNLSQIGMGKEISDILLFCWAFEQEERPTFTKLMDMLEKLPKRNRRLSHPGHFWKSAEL
# Excerpt: as §1
# [10] = biological target: 363 human kinases (including Aurora A/B/C) (Homo sapiens, UniProt Q5TCX8); conditions: MLK4; for remaining activity at 0.1 µM: 100 nM; for remaining activity at 0.1 µM / remaining activity at 0.5 µM: read-out: % Enzyme Activity (relative to DMSO controls)
# Sequence of 363 human kinases (including Aurora A/B/C) (Homo sapiens, UniProt Q5TCX8) (Q5TCX8 whole entry): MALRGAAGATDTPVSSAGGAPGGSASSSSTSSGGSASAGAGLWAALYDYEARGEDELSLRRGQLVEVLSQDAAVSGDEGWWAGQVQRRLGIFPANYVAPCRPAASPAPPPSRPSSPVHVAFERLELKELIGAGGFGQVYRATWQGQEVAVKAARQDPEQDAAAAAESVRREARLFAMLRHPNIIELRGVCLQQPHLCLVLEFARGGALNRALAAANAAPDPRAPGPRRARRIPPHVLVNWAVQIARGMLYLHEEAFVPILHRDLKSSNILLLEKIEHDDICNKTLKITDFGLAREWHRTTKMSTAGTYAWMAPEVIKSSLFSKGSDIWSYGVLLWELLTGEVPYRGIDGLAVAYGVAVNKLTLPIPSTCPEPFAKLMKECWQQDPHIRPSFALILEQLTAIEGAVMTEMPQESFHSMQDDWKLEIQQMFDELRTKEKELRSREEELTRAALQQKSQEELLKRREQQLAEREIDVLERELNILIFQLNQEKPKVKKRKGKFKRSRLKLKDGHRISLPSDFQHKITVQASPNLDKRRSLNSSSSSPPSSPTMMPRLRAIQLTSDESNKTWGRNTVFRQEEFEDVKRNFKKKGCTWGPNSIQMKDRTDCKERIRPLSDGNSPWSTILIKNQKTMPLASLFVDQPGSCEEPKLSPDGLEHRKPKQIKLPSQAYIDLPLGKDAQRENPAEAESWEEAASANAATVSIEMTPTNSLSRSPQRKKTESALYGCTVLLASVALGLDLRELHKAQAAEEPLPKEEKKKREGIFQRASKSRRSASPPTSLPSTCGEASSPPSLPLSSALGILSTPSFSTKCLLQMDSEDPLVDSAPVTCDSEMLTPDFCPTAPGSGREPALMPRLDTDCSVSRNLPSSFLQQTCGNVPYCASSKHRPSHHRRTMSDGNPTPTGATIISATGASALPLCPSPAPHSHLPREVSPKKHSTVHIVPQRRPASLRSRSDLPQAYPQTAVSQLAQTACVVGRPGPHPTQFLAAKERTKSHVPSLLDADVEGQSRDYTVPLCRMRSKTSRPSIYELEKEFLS
# Excerpt: as §1
# [11] = biological target: T3, 363 human kinases (including Aurora A/B/C) (Homo sapiens, UniProt P42679); conditions: CTK/MATK, [ATP] 100 µM; for remaining activity at 0.1 µM: 100 nM; for remaining activity at 0.1 µM / remaining activity at 0.5 µM: read-out: % Enzyme Activity (relative to DMSO controls)
# T3 sequence (P42679 1-507): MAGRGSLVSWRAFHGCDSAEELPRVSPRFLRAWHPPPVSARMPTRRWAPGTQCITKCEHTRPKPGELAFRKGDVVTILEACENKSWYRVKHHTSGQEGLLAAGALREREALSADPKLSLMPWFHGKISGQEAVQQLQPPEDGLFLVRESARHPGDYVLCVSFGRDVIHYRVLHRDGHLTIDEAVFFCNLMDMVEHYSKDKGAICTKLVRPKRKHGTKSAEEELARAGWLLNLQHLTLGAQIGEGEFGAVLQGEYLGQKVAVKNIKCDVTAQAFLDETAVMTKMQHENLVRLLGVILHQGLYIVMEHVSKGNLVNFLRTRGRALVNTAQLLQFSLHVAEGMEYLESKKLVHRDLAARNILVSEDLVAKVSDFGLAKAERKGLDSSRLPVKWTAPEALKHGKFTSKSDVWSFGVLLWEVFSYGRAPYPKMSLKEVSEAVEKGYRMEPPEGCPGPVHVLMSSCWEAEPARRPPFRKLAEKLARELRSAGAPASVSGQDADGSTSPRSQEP
# Excerpt: as §1
# Sequence of 363 human kinases (including Aurora A/B/C) (Homo sapiens, UniProt O96013) (O96013 whole entry): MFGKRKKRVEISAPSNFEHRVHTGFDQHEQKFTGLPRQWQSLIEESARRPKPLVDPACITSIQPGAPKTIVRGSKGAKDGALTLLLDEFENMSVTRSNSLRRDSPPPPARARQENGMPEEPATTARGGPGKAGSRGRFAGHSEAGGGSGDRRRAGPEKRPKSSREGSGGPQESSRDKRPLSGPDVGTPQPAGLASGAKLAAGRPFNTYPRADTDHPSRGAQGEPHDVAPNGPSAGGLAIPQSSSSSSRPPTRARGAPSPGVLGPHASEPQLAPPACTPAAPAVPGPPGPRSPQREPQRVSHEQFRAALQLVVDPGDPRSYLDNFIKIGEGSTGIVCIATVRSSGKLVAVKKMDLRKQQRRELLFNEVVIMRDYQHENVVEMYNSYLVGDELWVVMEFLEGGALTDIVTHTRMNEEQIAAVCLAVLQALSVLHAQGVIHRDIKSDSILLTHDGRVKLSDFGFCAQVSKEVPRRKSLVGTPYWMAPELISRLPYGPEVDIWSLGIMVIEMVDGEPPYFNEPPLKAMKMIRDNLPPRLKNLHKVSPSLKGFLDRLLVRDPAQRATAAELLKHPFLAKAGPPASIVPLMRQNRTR
structure (smiles),measurement,setting,value
CCn1cc(-c2ccnc3[nH]c(-c4cccc(CN(C)C)c4)cc23)c(-c2ccc(NC(=O)N(C)C)cc2)n1 [GSK1070916],remaining activity at 0.1 µM,[1],106%
same,remaining activity at 0.1 µM,[2],94.8%
same,remaining activity at 0.1 µM,[3],87.2%
same,remaining activity at 0.1 µM,[4],90.7%
same,remaining activity at 0.1 µM,[5],100%
same,remaining activity at 0.1 µM,[6],84.3%
same,remaining activity at 0.1 µM,[7],84.3%
same,remaining activity at 0.1 µM,[8],79.9%
same,remaining activity at 0.1 µM,[9],101%
same,remaining activity at 0.1 µM,[10],89%
same,remaining activity at 0.1 µM,[11],82.4%
O=C(O)[C@]1(Cc2cccc(Nc3nccs3)n2)CC[C@@H](Oc2cccc(Cl)c2F)CC1 [MK-5108],remaining activity at 0.1 µM,[1],92.8%
same,remaining activity at 0.5 µM,[1]; 500 nM,89.8%
same,remaining activity at 0.1 µM,[2],96.8%
same,remaining activity at 0.5 µM,[2]; 500 nM,96.4%
same,remaining activity at 0.1 µM,[3],104%
same,remaining activity at 0.5 µM,[3]; 500 nM,88.5%
same,remaining activity at 0.1 µM,[4],22.9%
same,remaining activity at 0.5 µM,[4]; 500 nM,6.3%
same,remaining activity at 0.1 µM,[5],111%
same,remaining activity at 0.5 µM,[5]; 500 nM,98.3%
same,remaining activity at 0.1 µM,[6],43.9%
same,remaining activity at 0.5 µM,[6]; 500 nM,18%
same,remaining activity at 0.1 µM,[7],94%
same,remaining activity at 0.5 µM,[7]; 500 nM,86.4%
same,remaining activity at 0.1 µM,[8],124%
same,remaining activity at 0.5 µM,[8]; 500 nM,96.6%
same,remaining activity at 0.1 µM,[9],95.6%
same,remaining activity at 0.5 µM,[9]; 500 nM,94.5%
same,remaining activity at 0.1 µM,[10],113%
same,remaining activity at 0.5 µM,[10]; 500 nM,34.7%
same,remaining activity at 0.1 µM,[11],103%
same,remaining activity at 0.5 µM,[11]; 500 nM,129%
O=C(c1cccc(Cl)c1F)N1CCN(Cc2cccc(Nc3nccs3)n2)CC1 [MK-8745],% Enzyme Activity (relative to DMSO controls),[1]; 500 nM,92.31%
same,remaining activity at 0.5 µM,[1]; 500 nM,95.9%
same,% Enzyme Activity (relative to DMSO controls),[2]; 500 nM,97.14%
same,remaining activity at 0.5 µM,[2]; 500 nM,97.2%
same,% Enzyme Activity (relative to DMSO controls),[3]; 500 nM,93.64%
same,remaining activity at 0.5 µM,[3]; 500 nM,93.8%
same,% Enzyme Activity (relative to DMSO controls),[4]; 500 nM,75.54%
same,remaining activity at 0.5 µM,[4]; 500 nM,77.7%
same,% Enzyme Activity (relative to DMSO controls),[5]; 500 nM,99.16%
same,remaining activity at 0.5 µM,[5]; 500 nM,100%
same,% Enzyme Activity (relative to DMSO controls),[6]; 500 nM,57.68%
same,remaining activity at 0.5 µM,[6]; 500 nM,57.8%
same,% Enzyme Activity (relative to DMSO controls),[7]; 500 nM,90.95%
same,remaining activity at 0.5 µM,[7]; 500 nM,91.3%
same,% Enzyme Activity (relative to DMSO controls),[8]; 500 nM,79.77%
same,remaining activity at 0.5 µM,[8]; 500 nM,81.5%
same,% Enzyme Activity (relative to DMSO controls),[9]; 500 nM,95.49%
same,remaining activity at 0.5 µM,[9]; 500 nM,98.3%
same,% Enzyme Activity (relative to DMSO controls),[10]; 500 nM,91.32%
same,remaining activity at 0.5 µM,[10]; 500 nM,91.5%
same,% Enzyme Activity (relative to DMSO controls),[11]; 500 nM,86.22%
same,remaining activity at 0.5 µM,[11]; 500 nM,86.8%

# — article PMC4685510, “A Cell Biologist’s Field Guide to Aurora Kinase Inhibitors” (Frontiers in Oncology, 2015)
